# Where a SMILES comes first, the peptide text is derived from it. Where no end group is shown, it is not given here. The star is where a group is joined. FITC = O=C1OC2(c3ccc(O)cc3Oc3cc(O)ccc32)c2ccc(NC(=S)*)cc21; Ahx = NCCCCCC(=O)O
# Key:
# IMPα3ΔIBB = IMPα3ΔIBB (Homo sapiens, UniProt O00629); experiment: biochemical; format: binding; details: for Kd: SEM
# Source text: (§1) Recombinant IMPαΔIBB proteins were produced for structural analysis and assays to elucidate the binding profiles with PyV LTAs. For this, plasmid constructs encoding IMPα isoforms with an N‐terminal truncation removing the autoinhibitory IBB domain (ΔIBB) were synthesized (GenScript Biotech, Singapore). Codon optimized genes were designed with an N‐terminal 6xHis tag and TEV protease cleavage site and were cloned into the BamHI site of pET30a (GenScript Biotech, Singapore). […] For protein expression, the plasmids were transformed via heat shock into BL21(DE3)pLysS E. coli cells (Thermofisher Scientific, Monza, Italy) and grown in 1 L baffled flasks at room temperature using auto‐induction methods for 24–48 h (Studier, [2005]). […] Following this, the 6xHis tag was cleaved using TEV protease incubated overnight at 4°C, and then further purified via gel filtration using a Superdex 200 pg 26/600 column (Cytiva, Marlborough, USA) and tris‐buffered saline (50 mM tris, 125 mM sodium chloride, pH 8.0). […] Peak fractions were assessed for purity using SDS‐PAGE, then pooled and concentrated using 10 kDa cutoff centrifugal filters (Merck Millipore, Milan, Italy). All samples were aliquoted and stored at −80°C until further use.
# (§2) Peptides corresponding to the cNLS regions of each PyV were synthesized for use in crystallography and binding assays. An automated CEM Liberty Blue solid phase peptide synthesizer generated each peptide with an added N‐terminal fluorescein isothiocyanate (FITC) tag. The reaction was performed using DIC and Oxyma coupling reagent and Fmoc deprotection with 20% (v/v) piperidine/DMF solution, all at 90°C. Following the final coupling, peptides were cleaved from the resin using a solution of TFA/TIPS/H2O (95/2.5/2.5) for 3 h. Purification was performed with HPLC and the peptides lyophilized to powder. Prior to use, peptide stock solutions were resolubilized to 10 mM concentration, aliquoted, and stored at −20°C until use.
# FP was used to quantify binding affinities of the HPyV LTA cNLSs for IMPαΔIBB proteins. Two‐fold dilutions of recombinant IMPαΔIBB proteins were titrated into black Fluotrac microplates (Greiner Bio‐One, Kremsmünster, Austria) and FITC‐cNLS peptides were added to each well before making up to a total volume of 200 μL with tris‐buffered saline. The gain adjustment was made using a well with no FITC‐NLS peptide. The CLARIOstar Plus (BMG Labtech, Mornington, Australia) plate reader measured FP values, with each assay repeated in triplicate. Binding curves to calculate K d and B max values were generated with the one site specific binding least square fit function of Prism 9 (GraphPad) software.
# IMPα2ΔIBB [1] = target: T1, IMPα2ΔIBB (Mus musculus, UniProt P52293); experiment: biochemical; format: binding; details: for Kd: SEM; for binding to IMPα2ΔIBB: FITC-labeled MCPyV LTA NLS peptides, EMSAs and FP assays, in words
# IMPα7ΔIBB = IMPα7ΔIBB (Homo sapiens, UniProt O60684); experiment: FP assay, FITC-cNLS peptide binding to IMPα7ΔIBB; details: FITC-Ahx-cNLS peptide, two-fold dilutions of recombinant IMPα7ΔIBB, tris-buffered saline, 200 μL, one site specific binding fit, mean ± SEM, three independent experiments, read-out: Kd (nM), a7
# IMPα7ΔIBB, sequence (O60684 73-536, stated change not applied): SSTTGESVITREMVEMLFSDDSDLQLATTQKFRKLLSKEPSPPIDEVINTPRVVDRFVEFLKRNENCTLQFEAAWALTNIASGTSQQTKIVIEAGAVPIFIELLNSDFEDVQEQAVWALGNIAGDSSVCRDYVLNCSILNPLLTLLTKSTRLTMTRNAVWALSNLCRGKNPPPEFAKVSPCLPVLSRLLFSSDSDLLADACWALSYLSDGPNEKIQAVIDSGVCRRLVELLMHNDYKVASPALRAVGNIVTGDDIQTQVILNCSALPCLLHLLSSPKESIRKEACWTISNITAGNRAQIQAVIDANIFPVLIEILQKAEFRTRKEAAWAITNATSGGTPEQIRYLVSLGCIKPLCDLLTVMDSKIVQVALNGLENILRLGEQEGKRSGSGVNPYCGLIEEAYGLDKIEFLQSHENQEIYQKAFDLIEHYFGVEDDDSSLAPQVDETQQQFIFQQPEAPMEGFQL
# Source text: as §1
# as §2, with “Prior to use, peptide stock solutions were resolubilized to 10 mM concentration, aliquoted, and stored at −20°C until use.” left out
# (§3) FP was used to quantify binding affinities of the HPyV LTA cNLSs for IMPαΔIBB proteins. […] The CLARIOstar Plus (BMG Labtech, Mornington, Australia) plate reader measured FP values, with each assay repeated in triplicate. […]
# IMPα5ΔIBB = IMPα5ΔIBB (Homo sapiens, UniProt P52294); experiment: FP assay, FITC-cNLS peptide binding to IMPα5ΔIBB; details: FITC-Ahx-cNLS peptide, two-fold dilutions of recombinant IMPα5ΔIBB, tris-buffered saline, 200 μL, one site specific binding fit, mean ± SEM, three independent experiments, read-out: Kd (nM), a5
# IMPα5ΔIBB, sequence (P52294 73-538, stated change not applied): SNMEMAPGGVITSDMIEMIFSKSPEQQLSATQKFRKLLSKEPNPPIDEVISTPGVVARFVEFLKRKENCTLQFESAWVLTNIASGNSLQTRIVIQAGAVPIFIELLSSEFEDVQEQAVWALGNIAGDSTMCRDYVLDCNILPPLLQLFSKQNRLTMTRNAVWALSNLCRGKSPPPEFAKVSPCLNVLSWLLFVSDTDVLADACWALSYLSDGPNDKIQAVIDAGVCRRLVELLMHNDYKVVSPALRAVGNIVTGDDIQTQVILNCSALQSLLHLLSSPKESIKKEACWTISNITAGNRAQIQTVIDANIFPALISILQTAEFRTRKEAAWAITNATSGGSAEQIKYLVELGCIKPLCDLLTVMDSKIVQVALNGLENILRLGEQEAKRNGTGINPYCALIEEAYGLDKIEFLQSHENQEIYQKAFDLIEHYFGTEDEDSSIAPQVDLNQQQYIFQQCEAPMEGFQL
# Source text: as §1
# as §2, with “Prior to use, peptide stock solutions were resolubilized to 10 mM concentration, aliquoted, and stored at −20°C until use.” left out
# as §3
# IMPα1ΔIBB = IMPα1ΔIBB (Homo sapiens, UniProt P52292); experiment: Fluorescence polarization (FP) assay, FITC-cNLS peptide binding to IMPα1ΔIBB; details: FITC-Ahx-cNLS peptide, two-fold dilutions of recombinant IMPα1ΔIBB, tris-buffered saline, 200 μL, one site specific binding fit, mean ± SEM, three independent experiments, read-out: Kd (nM), a1
# Source text: as §1
# as §2, with “Prior to use, peptide stock solutions were resolubilized to 10 mM concentration, aliquoted, and stored at −20°C until use.” left out
# as §3
# IMPα2ΔIBB [2] = target: T1, IMPα2ΔIBB; experiment: X-ray crystallography of cNLS peptides complexed with IMPα2ΔIBB; format: binding; details: FITC-cNLS peptide soaked or co-crystallized, in words
# Source text: Recombinant IMPαΔIBB proteins were produced for structural analysis and assays to elucidate the binding profiles with PyV LTAs. For this, plasmid constructs encoding IMPα isoforms with an N‐terminal truncation removing the autoinhibitory IBB domain (ΔIBB) were synthesized (GenScript Biotech, Singapore). Codon optimized genes were designed with an N‐terminal 6xHis tag and TEV protease cleavage site and were cloned into the BamHI site of pET30a (GenScript Biotech, Singapore). […] For protein expression, the plasmids were transformed via heat shock into BL21(DE3)pLysS E. coli cells (Thermofisher Scientific, Monza, Italy) and grown in 1 L baffled flasks at room temperature using auto‐induction methods for 24–48 h (Studier, [2005]). […] Peak fractions were assessed for purity using SDS‐PAGE, then pooled and concentrated using 10 kDa cutoff centrifugal filters (Merck Millipore, Milan, Italy). […]
# X‐ray crystallography was employed to characterize HPyV LTA cNLSs bound to IMPα2ΔIBB. […] Protein interface interactions used in the structure figures were calculated using PDBePISA (Krissinel & Henrick, [2007]), with hydrogens removed in the PDB input models.
# IMPαΔIBB isoforms [3] = experiment: Electrophoresis mobility shift assays (EMSAs) of FITC-cNLS peptides with IMPαΔIBB isoforms; format: binding; details: EMSA, 1.5% agarose gel, TB buffer pH 8.5, FITC-cNLS peptide, in words
# IMPαΔIBB isoforms [4] = experiment: FP assays, summary over all IMPαΔIBB isoforms; format: binding
# Source text: as §1, with “All samples were aliquoted and stored at −80°C until further use.” left out
# as §3
# IMPα3ΔIBB, sequence (O00629 64-521, stated change not applied): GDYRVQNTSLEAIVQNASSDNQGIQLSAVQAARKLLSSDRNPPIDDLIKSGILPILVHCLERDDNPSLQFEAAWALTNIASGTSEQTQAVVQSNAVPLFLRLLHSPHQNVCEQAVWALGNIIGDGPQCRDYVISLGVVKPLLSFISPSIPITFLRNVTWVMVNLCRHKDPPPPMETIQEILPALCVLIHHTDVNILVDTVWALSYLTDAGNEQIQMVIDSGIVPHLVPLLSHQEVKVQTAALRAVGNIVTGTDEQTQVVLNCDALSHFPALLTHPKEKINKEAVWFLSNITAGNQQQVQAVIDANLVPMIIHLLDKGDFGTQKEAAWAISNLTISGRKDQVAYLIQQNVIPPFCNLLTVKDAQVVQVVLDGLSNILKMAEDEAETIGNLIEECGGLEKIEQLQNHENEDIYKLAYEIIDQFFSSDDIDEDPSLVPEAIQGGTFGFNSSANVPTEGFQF
Compound,Kd (IMPα3ΔIBB) [nM],Kd (IMPα2ΔIBB [1]) [nM],Kd (IMPα7ΔIBB) [nM],Kd (IMPα5ΔIBB) [nM],Kd (IMPα1ΔIBB) [nM],also measured
CSCC[C@H](NC(=O)CCCCCNC(=S)Nc1ccc2c(c1)C(=O)OC21c2ccc(O)cc2Oc2cc(O)ccc21)C(=O)N[C@@H](Cc1ccccc1)C(=O)N[C@@H](C)C(=O)N[C@@H](CO)C(=O)N[C@@H](CC(=O)O)C(=O)N[C@@H](CC(=O)O)C(=O)N[C@@H](CCC(=O)O)C(=O)N[C@@H](CC(N)=O)C(=O)N[C@H](C(=O)NCC(=O)N[C@@H](CO)C(=O)N[C@@H](CCC(N)=O)C(=O)N[C@@H](Cc1c[nH]cn1)C(=O)N[C@@H](CO)C(=O)N[C@H](C(=O)N1CCC[C@H]1C(=O)N1CCC[C@H]1C(=O)N[C@@H](CCCCN)C(=O)N[C@@H](CCCCN)C(=O)N[C@@H](CCCCN)C(=O)N[C@@H](CCCCN)C(=O)N[C@@H](CCCCN)C(=O)N[C@H](C(=O)O)C(C)C)[C@@H](C)O)[C@@H](C)O [JCPyV] ({FITC-Ahx}-MFASDDENTGSQHSTPPKKKKKV-OH; C-terminus assumed),119 ± 2.8,89.6 ± 3,103 ± 1.1,271 ± 4.1,76.9 ± 2,
C[C@H](NC(=O)[C@H](Cc1c[nH]cn1)NC(=O)[C@H](CCCCN)NC(=O)[C@H](CCCCN)NC(=O)[C@H](CCCCN)NC(=O)[C@@H]1CCCN1C(=O)[C@@H]1CCCN1C(=O)[C@@H](NC(=O)[C@H](C)NC(=O)[C@H](CCC(N)=O)NC(=O)[C@H](CO)NC(=O)[C@H](CS)NC(=O)[C@H](CO)NC(=O)[C@@H]1CCCN1C(=O)[C@H](CCC(=O)O)NC(=O)[C@H](CCC(=O)O)NC(=O)[C@H](CCC(=O)O)NC(=O)[C@@H]1CCCN1C(=O)[C@H](C)NC(=O)[C@H](CO)NC(=O)[C@H](CCCNC(=N)N)NC(=O)[C@H](CCCCN)NC(=O)CCCCCNC(=S)Nc1ccc2c(c1)C(=O)OC21c2ccc(O)cc2Oc2cc(O)ccc21)[C@@H](C)O)C(=O)O [KIPyV] ({FITC-Ahx}-KRSAPEEEPSCSQATPPKKKHA-OH; C-terminus assumed),11 ± 2,14 ± 3,8 ± 1,10 ± 1,22 ± 1,
C[C@H](NC(=O)[C@H](CCC(N)=O)NC(=O)[C@H](CO)NC(=O)[C@H](CS)NC(=O)[C@H](CCC(N)=O)NC(=O)[C@@H]1CCCN1C(=O)[C@H](CCC(=O)O)NC(=O)[C@H](CCC(=O)O)NC(=O)[C@H](CC(=O)O)NC(=O)[C@H](CC(=O)O)NC(=O)[C@H](CCC(=O)O)NC(=O)[C@H](CCCNC(=N)N)NC(=O)[C@@H](NC(=O)[C@H](CCCNC(=N)N)NC(=O)[C@H](CCCCN)NC(=O)CCCCCNC(=S)Nc1ccc2c(c1)C(=O)OC21c2ccc(O)cc2Oc2cc(O)ccc21)[C@@H](C)O)C(=O)N[C@H](C(=O)N1CCC[C@H]1C(=O)N1CCC[C@H]1C(=O)N[C@@H](CCCCN)C(=O)N[C@@H](CCCCN)C(=O)N[C@@H](CCCCN)C(=O)N[C@@H](CCCCN)C(=O)N[C@@H](CC(=O)O)C(=O)O)[C@@H](C)O [WUPyV] ({FITC-Ahx}-KRTREDDEEPQCSQATPPKKKKD-OH; C-terminus assumed),0.3 ± 0.03,36.1 ± 2.2,0.1 ± 0.1,0.9 ± 0.04,0.2 ± 0.02,
"{FITC-Ahx}-MFASDDENTGSQHSTPPKKKKKV [JCPyV LTA NLS peptide, FITC-Ahx-labelled synthetic peptide of JCPyV LTA monopartite cNLS, residues 111-133]",,,,,,binding mode in crystal structure with IMPα2ΔIBB (IMPα2ΔIBB [2]): bound as a monopartite cNLS at the major site of IMPα2ΔIBB; co-migration with IMPαΔIBB isoforms (IMPαΔIBB isoforms [3]): co‐migrated with all IMPαΔIBB isoforms
{FITC-Ahx}-PFSRKRTFGGS [MCPyV NLSm K280T],,,,,,binding to IMPα2ΔIBB (IMPα2ΔIBB [1]): completely abrogated IMPα2ΔIBB binding
{FITC-Ahx}-PFSRKRTFGGSRSSASSASSASFTSTPPKPKKNRE [MCPyV NLSbip K280T],,,,,,binding to IMPα2ΔIBB (IMPα2ΔIBB [1]): completely abrogated IMPα2ΔIBB binding to MCPyV LTA NLSm but not NLSbip
{FITC-Ahx}-SSSDEEEPASSASVNPEEGCSQDSKYSATPPKQKKPN [HPyV7 LTA cNLS peptide],,,,,,"binding to IMPα3ΔIBB (IMPα3ΔIBB; in vitro, FP, in words): weakly binding IMPα3ΔIBB; IMPα isoform specificity (IMPαΔIBB isoforms [4]; in words): selectively bound to IMPα3ΔIBB; Kds for IMPαΔIBB isoforms (IMPαΔIBB isoforms [4]; span over IMPα1, 2, 3, 5, 7 ΔIBB): too weak to allow estimation of a Kd; co-migration with IMPαΔIBB isoforms (IMPαΔIBB isoforms [3]): a very small fraction of HPyV7 LTA monopartite cNLS co‐migrated with IMPαΔIBB isoforms"
